Test results from patent US11548903B2, “Bicyclic thiazine and oxazine derivatives as beta-secretase inhibitors and methods of use” (AMGEN INC., priority 2016, dated 2023).
Where two headings read alike, the source gives them in different places.

What was measured:
human recombinant BACE1 = human recombinant BACE1 (Homo sapiens (Human), UniProt P56817); assay: In vitro enzymatic BACE1 FRET assay; assay type: biochemical; conditions: read-out: BACE1 Enzyme IC50
Summary of the method: (§1)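 Ni-NTA-purified recombinant human BACE1 or BACE2 cleaved a 50 nM internally quenched peptide FRET substrate for one hour. Reactions were stopped with tris buffer raising pH to neutrality. Fluorescence was read at ex 488/em 590 nm.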

[1] = test system: β-secretase (Aβ peptide levels); assay: In vivo inhibition of β-secretase (Aβ reduction in rat CSF and brain)
Text: In vivo Inhibition of β-Secretase
Several animal models, including mouse, rat, dog, and monkey, may be used to screen for inhibition of β-secretase activity in vivo following administration of a test compound. […] Animals to be used in this experiment can be wild type, transgenic, or gene knockout animals. For example, the Tg2576 mouse model, prepared and conducted as described in Hsiao et al., Science 274:99-102 (1996), and other non-transgenic or gene knockout animals are useful to analyze in vivo inhibition of Aβ peptide production in the presence of test compounds.
Generally, 2 to 18 month old Tg2576 mice, gene knockout mice or non-transgenic animals are administered test compounds formulated in vehicles, such as cyclodextran, phosphate buffers, hydroxypropyl methylcellulose or other suitable vehicles. One to twenty-four hours following the administration of compound, animals are sacrificed, and brains as well as cerebrospinal fluid (CSF) and plasma are removed for analysis of Aβ levels and test compound concentrations (Dovey et al., J. Neurochem., 76(1):173-181 (2001)) Beginning at time 0, animals are administered by oral gavage, or other means of delivery such as intravenous injection, an inhibitory test compound of up to 100 mg/kg in a standard, conventional formulation, such as 2% hydroxypropyl methylcellulose, 1% Tween80. A separate group of animals receive 2% hydroxypropyl methylcellulose, 1% Tween80 alone, containing no test compound, and serve as a vehicle-control group. At the end of the test period, animals are sacrificed and brain tissues, plasma or cerebrospinal fluid are collected. Brains are either homogenized in 10 volumes (w/v) of 0.2% diethylamine (DEA) in 50 mM NaCl (Best et al., J. Pharmacol. Exp. Ther. 313(2):902-908 (2005)), or in 10 volumes of 0.5% TritonX-100 in Tris-buffered saline (pH at about 7.6). Homogenates are centrifuged at 355,000 g, 4° C. for 30 minutes. CSF or brain supernatants are then analyzed for the presence of Aβ by specific sandwich ELISA assays based on ECL (Electrochemiluminescence) technology. For example, rat Aβ40 is measured using biotinylated-4G8 (Signet) as a capture antibody and Fab40 (an in-house antibody specific to the C-terminal of Aβ40) as a detection antibody. For example, 4 hours after administration of 30 mg/kg oral dose of the test compound in 2% hydroxypropyl methylcellulose, 1% Tween80 (pH2.2) to 200 g male Sprague Dawley rats, Aβ peptide levels are measured for reduction by X % and Y % in cerebrospinal fluid and brain, respectively, when compared to the levels measured in the vehicle-treated or control mice. Alternatively, the antibody sold with the V-PLEX abeta40 Peptide (4G8) Kit, commercially available from Meso Scale Diagnostics (MSD), Rockville, Md. 20850-3173 (Catalog NO. K150SJE-1) may be used in this assay.
The results presented in Table 3 were obtained using certain compounds described herein in the in vivo protocol described above.

[2] = test system: BACE1 (Aβ40 from cells stably expressing Amyloid Precursor Protein); assay: In vitro BACE1 cell-based assay (Aβ40 in conditioned medium, HTRF)
Summary of the method: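 APP-stably expressing cells treated with compounds in 22-point dose response from 62.5 μM top concentration (0.625% final DMSO) for 24 h at 37° C in DMEM/10% FBS. Secreted Aβ40 in conditioned medium quantified by HTRF using ConfAb40 and biotinylated 6E10 with streptavidin-APC, 30-60 min at 23° C.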

Recombinant CatD = Recombinant CatD (Homo sapiens (Human), UniProt P07339); assay: In vitro enzymatic Cathepsin D (CatD) FRET assay; assay type: biochemical; conditions: read-out: Cat D Enzyme IC50
Chain of Recombinant CatD (P07339 65-412): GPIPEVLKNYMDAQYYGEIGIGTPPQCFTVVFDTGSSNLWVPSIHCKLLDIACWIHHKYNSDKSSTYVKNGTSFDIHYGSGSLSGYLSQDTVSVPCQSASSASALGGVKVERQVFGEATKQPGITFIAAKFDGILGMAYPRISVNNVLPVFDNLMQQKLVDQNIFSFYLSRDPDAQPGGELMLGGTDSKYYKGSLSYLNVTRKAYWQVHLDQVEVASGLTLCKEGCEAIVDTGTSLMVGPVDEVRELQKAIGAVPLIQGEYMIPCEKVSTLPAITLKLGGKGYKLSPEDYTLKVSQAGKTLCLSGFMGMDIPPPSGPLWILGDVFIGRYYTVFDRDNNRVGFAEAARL
Summary of the method: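 Recombinant human CatD, expressed in CHO cells, was run in 0.05 M citrate pH 3.5 with 10% DMSO final and 5 mM CHAPS. Reactions were started with 20 nM quenched FRET peptide and incubated 1 h. Tris buffer was added to neutralize the pH before reading fluorescence at ex 500/em 580 nm.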

human recombinant BACE2 = human recombinant BACE2 (Homo sapiens (Human), UniProt Q9Y5Z0); assay: In vitro enzymatic BACE2 FRET assay; assay type: biochemical; conditions: read-out: BACE2 Enzyme IC50
Chain of human recombinant BACE2 (Q9Y5Z0 63-518): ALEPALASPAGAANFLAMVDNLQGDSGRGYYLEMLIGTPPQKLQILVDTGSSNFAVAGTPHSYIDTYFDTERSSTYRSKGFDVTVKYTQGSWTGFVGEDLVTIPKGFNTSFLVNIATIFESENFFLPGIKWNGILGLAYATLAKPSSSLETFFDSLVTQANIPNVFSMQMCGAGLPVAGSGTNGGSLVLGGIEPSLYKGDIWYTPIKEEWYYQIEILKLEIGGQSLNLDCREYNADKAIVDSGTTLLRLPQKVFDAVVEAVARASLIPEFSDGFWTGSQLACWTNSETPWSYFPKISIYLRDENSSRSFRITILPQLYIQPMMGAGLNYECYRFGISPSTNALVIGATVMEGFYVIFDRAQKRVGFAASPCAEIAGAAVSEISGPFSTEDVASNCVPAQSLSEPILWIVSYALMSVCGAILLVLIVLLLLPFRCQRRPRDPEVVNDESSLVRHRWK
Summary of the method: as §1

[3] = test system: CSF Aβ peptide concentrations; conditions: cited from earlier work
[4] = test system: pigment epithelium of the rat's eye; conditions: higher compound dose given for three months; cited from earlier work
Aβ peptide in CSF = conditions: oral dose of 95 mg once daily; cited from earlier work
[5] = test system: Aβ peptide levels in the CSF and plasma; conditions: nonhuman primates; cited from earlier work
[6] = Aβ40, 24 h incubation, read-out: BACE1 Cell IC50

Chain of human recombinant BACE1 (P56817 46-501): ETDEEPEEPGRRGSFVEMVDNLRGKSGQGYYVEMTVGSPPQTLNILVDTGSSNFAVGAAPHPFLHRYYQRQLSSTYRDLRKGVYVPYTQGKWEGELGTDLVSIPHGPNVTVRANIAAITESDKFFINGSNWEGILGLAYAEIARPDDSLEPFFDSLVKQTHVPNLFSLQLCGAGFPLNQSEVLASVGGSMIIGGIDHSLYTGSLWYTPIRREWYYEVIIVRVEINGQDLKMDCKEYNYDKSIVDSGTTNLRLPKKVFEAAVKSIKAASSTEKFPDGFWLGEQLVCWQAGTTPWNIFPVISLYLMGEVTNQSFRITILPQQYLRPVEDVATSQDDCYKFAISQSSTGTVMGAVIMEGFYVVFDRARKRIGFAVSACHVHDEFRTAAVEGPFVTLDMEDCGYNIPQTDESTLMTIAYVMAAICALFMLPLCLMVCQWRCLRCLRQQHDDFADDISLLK

Structure (SMILES)	IC50 (human recombinant BACE1)	% Aβ reduction in rat CSF at 10 mpk [1]	% Aβ reduction in rat brain at 10 mpk [1]	IC50 (Recombinant CatD)	IC50 (human recombinant BACE2)	also measured
N#Cc1ccc(/C(F)=C/c2ccc(F)c([C@]34CO[C@H](C(F)(F)F)[C@H]3CSC(N)=N4)c2)nc1 [Example 126, 6-((Z)-2-(3-((4aS,5S,7aS)-2-amino-5-(trifluoromethyl)-4a,5,7,7a-tetrahydro-4H-furo[3,4-d][1,3]thiazin-7a-yl)-4-fluorophenyl)-1-fluorovinyl)nicotinonitrile]	0.0201 µM	83%	80%	292 µM	0.334 µM	IC50 [2, 6]: 0.00574 µM
CN1C(=N)N[C@](C)(c2cc(NC(=O)c3ccc(F)cn3)ccc2F)CS1(=O)=O [MK-8931]	–	–	–	–	–	CSF Aβ peptide concentrations ([3]; human, in vivo): significantly reduced CSF Aβ peptide concentrations in a sustained and dose-dependent manner; safety profile ([3]; phase I clinical trials): excellent safety profile with no immediately noticeable side effects
N#Cc1cnc(/C(F)=C/c2ccc(F)c([C@]34CO[C@H](C(F)(F)F)[C@H]3CSC(N)=N4)c2)cn1 [Example 128, 5-((Z)-2-(3-((4aS,5S,7aS)-2-amino-5-(trifluoromethyl)-4a,5,7,7a-tetrahydro-4H-furo[3,4-d][1,3]thiazin-7a-yl)-4-fluorophenyl)-1-fluorovinyl)pyrazine-2-carbonitrile]	0.0153 µM	79%	77%	418 µM	0.341 µM	IC50 ([2]; 24 h, read-out: BACE1 Cell IC50 (μM)): 0.00364 µM
C[C@@]1(c2cc(-c3cncnc3)c(F)cc2F)CCSC(N)=N1 [LY 2811376]	–	–	–	–	–	eye toxicity finding [4]: damaged the pigment epithelium of the rat's eye
C[C@@]1(c2cc(NC(=O)c3ccc(C#N)cn3)ccc2F)C=CSC(N)=N1 [JNJ-54861911]	–	–	–	–	–	Aβ peptide reduction in CSF (Aβ peptide in CSF): up to 95%
C#CCOc1cnc(/C(F)=C/c2ccc(F)c([C@]34CN(C(C)=O)C[C@H]3CSC(N)=N4)c2)cn1 [Example 118, 1-((4aR,7aS)-2-amino-7a-(2-fluoro-5-((Z)-2-fluoro-2-(5-(prop-2-yn-1-yloxy)pyrazin-2-yl)vinyl)phenyl)-4a,5,7,7a-tetrahydropyrrolo[3,4-d][1,3]thiazin-6(4H)-yl)ethanone]	0.00745 µM	43%	43%	125 µM	0.394 µM	IC50 [2, 6]: 0.0198 µM
C[C@H]1OC[C@]2(c3cc(NC(=O)c4cnc(C(F)F)cn4)ccc3F)N=C(N)SC[C@H]12 [Example E2609]	–	–	–	–	–	Aβ peptide levels in the CSF and plasma [5]: significant reduction in Aβ peptide levels in the CSF and plasma
